Experiments:
[1] = Terminal half life in healthy human subjects (6 subjects) at 2.6 mg/kg, iv by HPLC method; type: ADME, organism-based; details: in vivo, read-out: beta t1/2 (converted)
[2] = Terminal half life in healthy human subjects (6 subjects) at 2.9 mg/kg, po by HPLC method; type: ADME, organism-based; details: in vivo, read-out: beta t1/2 (converted)
[3] = Apparent volume of distribution in healthy human subjects (6 subjects) at 2.6 mg/kg, iv by HPLC method; type: ADME, organism-based; details: in vivo, read-out: Vd(app)
[4] = Renal clearance in healthy human subjects (6 subjects) at 2.6 mg/kg, iv by HPLC method; type: ADME, organism-based, Kidney; details: in vivo
[5] = Total body clearance in healthy human subjects (6 subjects) at 2.6 mg/kg, iv by HPLC method; type: ADME, organism-based; details: in vivo
[6] = Tmax in healthy human subjects (6 subjects) at 2.9 mg/kg, po by HPLC method; type: ADME, organism-based; details: in vivo
[7] = Cmax in healthy human subjects (6 subjects) at 2.9 mg/kg, po by HPLC method; type: ADME, organism-based; parameters: dose 2.9 mg/kg, route oral; details: in vivo
[8] = Oral bioavailability in healthy human subjects (6 subjects) at 2.9 mg/kg by HPLC method; type: ADME, organism-based; details: in vivo
[9] = Corrected oral bioavailability in healthy human subjects (6 subjects) at 2.9 mg/kg by HPLC method; type: ADME, organism-based; details: in vivo
[10] = Drug dissolution in water measured during 15 mins; type: physicochemical; details: buffer, 0.25 h
[11] = Drug dissolution in 0.1N HCl measured during 15 mins; type: physicochemical; details: buffer, 0.25 h
[12] = Oral bioavailability in human subjects receiving phenobarbital tablets after having received phenobarbital infusion for […] withdrawal; type: ADME, organism-based; details: in vivo
[13] = Drug dissolution in acid medium after 90 mins; type: physicochemical; details: 1.5 h
[14] = Drug dissolution in aqueous medium after 90 mins; type: physicochemical; details: buffer, 1.5 h
[15] = Tmax in human; type: ADME, organism-based; details: in vivo
[16] = Tmax in adult human; type: ADME, organism-based; details: in vivo
[17] = Elimination half life in healthy human subjects (6 subjects) at 2.6 mg/kg, iv measured during intravenous control dose (period-1) by HPLC method; type: ADME, organism-based; details: in vivo, read-out: beta t1/2 (converted)
[18] = Elimination half life in healthy human subjects (6 subjects) measured during alkaline diuresis dose (period-2) by HPLC method; type: ADME, organism-based; details: in vivo, read-out: beta t1/2 (converted)
[19] = Elimination half life in healthy human subjects (6 subjects) at 2.9 mg/kg, po measured during oral dose (period-3) by HPLC method; type: ADME, organism-based; details: in vivo, read-out: beta t1/2 (converted)
Homo sapiens [20] = experiment: Distribution half life in healthy human subjects (6 subjects) at 2.6 mg/kg, iv by HPLC method; type: ADME, organism-based; details: in vivo
Homo sapiens [21] = experiment: Disposition rate constant at distribution phase in healthy human subjects (6 subjects) at 2.6 mg/kg, iv by HPLC method; type: ADME, organism-based; details: in vivo
[22] = Disposition rate constant at terminal phase in healthy human subjects (6 subjects) at 2.6 mg/kg, iv by HPLC method; type: ADME, organism-based; details: in vivo
[23] = Disposition rate constant at terminal phase in healthy human subjects (6 subjects) at 2.9 mg/kg, po by HPLC method; type: ADME, organism-based; details: in vivo

Compound CCC1(c2ccccc2)C(=O)NC(=O)NC1=O [PHENOBARBITAL] has a half-life [1] of 139 h, a half-life [2] of 122 h and a Vd [3] of 0.6 L/kg. The CL renal [4] was 0.8 mL/h/kg, the clearance [5] was 3 mL/h/kg and the Tmax [6] was 2.3 h. For the same compound, the Cmax [7] was 5500 ng/mL, the bioavailability [8] was 83.4% and the bioavailability [9] was 94.9%. For the same compound, the Drug dissolution [10] was 80%, the Drug dissolution [11] was 81.5% and the bioavailability [12] was 100%. For the same compound, the Drug dissolution [13] was 61.3%, the Drug dissolution [14] was 86% and the Tmax [15] was no more than 18 h. It also gave a Tmax [16] of 50 h, a half-life [17] of 147 h and a half-life [18] of 128 h. The half-life [19] was 149 h, the alphat1/2 (Homo sapiens [20]) was 0.18 h and the K (Homo sapiens [21]) was 3.8 h⁻¹. The k el [22] was 1.39e-06 s⁻¹ and the k el [23] was 1.58e-06 s⁻¹.

— ChEMBL document CHEMBL3785015, “Phenobarbital pharmacokinetics and bioavailability in adults” (J Clin Pharmacol, 1982)
